Results from paper PMC5454964, “Isolation of Rice Bran Lectins and Characterization of Their Unique Behavior in Caco-2 Cells” (International Journal of Molecular Sciences, 2017).

Key:
[1] = molecular target: T1, RBA2 (rice bran lectin 2) (Oryza sativa, UniProt Q0JF21); assay: hemagglutination inhibition (rabbit erythrocytes); type: biochemical; settings: pH 7.5, room temperature, 2-fold serial dilution
T1 construct: gene Os04g0173800; noncovalent homodimer of 12-kDa subunits, 25 kDa
T1 sequence (Q0JF21 123-201): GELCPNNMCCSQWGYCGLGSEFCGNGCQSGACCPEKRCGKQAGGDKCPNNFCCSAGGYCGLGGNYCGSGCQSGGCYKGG
Source text: hemagglutination inhibition (rabbit erythrocytes) on RBA2 (rice bran lectin 2)

[2] = molecular target: T2, RBA1 (rice bran lectin 1) (Oryza sativa, UniProt Q0JF21); assay: hemagglutination inhibition (rabbit erythrocytes); type: biochemical; settings: pH 7.5, room temperature, 2-fold serial dilution
T2 construct: gene Os04g0173800; disulfide-linked heterodimer of 20- and 12-kDa subunits, 32-33 kDa
T2 sequence (Q0JF21 29-122): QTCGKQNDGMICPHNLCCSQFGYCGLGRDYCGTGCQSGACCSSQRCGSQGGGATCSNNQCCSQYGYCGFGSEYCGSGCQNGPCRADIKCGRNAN
T2 sequence (Q0JF21 123-201): T1 sequence (Q0JF21 123-201)
Source text: hemagglutination inhibition (rabbit erythrocytes) on RBA1 (rice bran lectin 1)

[3] = molecular target: T3, bovine serum albumin (BSA) (Bos taurus, UniProt P02769); assay: frontal affinity chromatography, immobilised protein; type: binding; settings: pH 7.3, 25 °C, EDTA-PB
T3 construct: gene ALB
T3 sequence (P02769 25-607): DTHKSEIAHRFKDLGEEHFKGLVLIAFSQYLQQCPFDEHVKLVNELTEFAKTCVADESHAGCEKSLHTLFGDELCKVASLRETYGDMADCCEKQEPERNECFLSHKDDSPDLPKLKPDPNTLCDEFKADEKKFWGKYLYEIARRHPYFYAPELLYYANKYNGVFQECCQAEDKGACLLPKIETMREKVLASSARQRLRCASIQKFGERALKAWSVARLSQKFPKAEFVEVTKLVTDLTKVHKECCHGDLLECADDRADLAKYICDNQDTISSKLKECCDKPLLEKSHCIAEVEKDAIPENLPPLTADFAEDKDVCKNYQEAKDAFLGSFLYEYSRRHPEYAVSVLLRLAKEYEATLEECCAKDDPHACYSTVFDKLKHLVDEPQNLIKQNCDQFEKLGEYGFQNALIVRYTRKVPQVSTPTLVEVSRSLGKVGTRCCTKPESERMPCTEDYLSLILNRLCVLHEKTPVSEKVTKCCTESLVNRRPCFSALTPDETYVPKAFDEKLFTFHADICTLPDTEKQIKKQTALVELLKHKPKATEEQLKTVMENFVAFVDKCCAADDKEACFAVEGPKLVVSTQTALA

| SMILES | RBA2 [1] | RBA1 [2] | hemagglutination inhibition concentration [1] | V - V0 [3] |
| --- | --- | --- | --- | --- |
| CC(=O)N[C@H]1C(O)O[C@H](CO)[C@@H](O)[C@@H]1O (stereo partly drawn) [N-Acetyl D-glucosamine] | 50 mM | 25 mM |  |  |
| CC(=O)N[C@H]1[C@H](O[C@H]2[C@H](O)[C@@H](NC(C)=O)C(O)O[C@@H]2CO)O[C@H](CO)[C@@H](O[C@@H]2O[C@H](CO)[C@@H](O[C@@H]3O[C@H](CO)[C@@H](O)[C@H](O)[C@H]3NC(C)=O)[C@H](O)[C@H]2NC(C)=O)[C@@H]1O (stereo partly shown) [Tetra-N-acetylchitotetraose] |  | 0.04 mM | 0.04 mM |  |
| N[C@H]1[C@H](O[C@H]2[C@H](O)[C@@H](N)C(O)O[C@@H]2CO)O[C@H](CO)[C@@H](O)[C@@H]1O (stereo partly shown) [Chitobiose] |  | 100 mM |  |  |
| CC(=O)N[C@H]1[C@H](O[C@H]2[C@H](O)[C@@H](NC(C)=O)[C@H](O[C@H]3[C@H](O)[C@@H](NC(C)=O)C(O)O[C@@H]3CO)O[C@@H]2CO)O[C@H](CO)[C@@H](O[C@@H]2O[C@H](CO)[C@@H](O[C@@H]3O[C@H](CO)[C@@H](O[C@@H]4O[C@H](CO)[C@@H](O)[C@H](O)[C@H]4NC(C)=O)[C@H](O)[C@H]3NC(C)=O)[C@H](O)[C@H]2NC(C)=O)[C@@H]1O (stereo partly shown) [Hexa-N-acetylchitohexaose] |  | 0.04 mM | 0.04 mM |  |
| CC(=O)N[C@H]1[C@H](O[C@H]2[C@H](O)[C@@H](NC(C)=O)[C@H](O[C@H]3[C@H](O)[C@@H](NC(C)=O)C(O)O[C@@H]3CO)O[C@@H]2CO)O[C@H](CO)[C@@H](O[C@@H]2O[C@H](CO)[C@@H](O[C@@H]3O[C@H](CO)[C@@H](O)[C@H](O)[C@H]3NC(C)=O)[C@H](O)[C@H]2NC(C)=O)[C@@H]1O (stereo partly shown) [Penta-N-acetylchitopentaose] | 0.04 mM | 0.02 mM |  |  |
| N[C@H]1C(O)O[C@H](CO)[C@@H](O)[C@@H]1O (stereo partly drawn) [D-Glucosamine] | 3.1 mM | > 200 mM |  |  |
| CC(=O)N[C@H]1[C@H](O[C@H]2[C@H](O)[C@@H](NC(C)=O)C(O)O[C@@H]2CO)O[C@H](CO)[C@@H](O)[C@@H]1O (stereo partly shown) [Di-N-acetylchitobiose] | 6.25 mM | 0.78 mM |  |  |
| CC(=O)N[C@H]1[C@H](O[C@H]2[C@H](O)[C@@H](NC(C)=O)C(O)O[C@@H]2CO)O[C@H](CO)[C@@H](O[C@@H]2O[C@H](CO)[C@@H](O)[C@H](O)[C@H]2NC(C)=O)[C@@H]1O (stereo partly shown) [Tri-N-acetylchitotriose] | 0.39 mM | 0.09 mM |  |  |
| CC(=O)N[C@H]1C(O)O[C@H](CO)[C@H](O)[C@@H]1O (stereo partly drawn) [N-Acetyl D-galactosamine] | 50 mM |  |  |  |
| N[C@H]1C(O)O[C@H](CO)[C@H](O)[C@@H]1O (stereo partly drawn) [D-Galactosamine] | 0.8 mM | > 200 mM |  |  |
| COC(=O)c1ccccc1-c1c2ccc(=N)cc-2oc2cc(N)ccc12 [Rhodamine 123] |  |  |  | BSA showed a similar interaction with RH. |
